{"source": "PubChem BioAssay (NCI)", "assay_in_all_cases": "NCI tumour cell line growth inhibition, 48 h", "key": {"[1]": {"tested_on": "T-47D breast"}, "[2]": {"tested_on": "IGROV1 ovarian"}, "[3]": {"tested_on": "HCT-15 colon"}, "[4]": {"tested_on": "NCI-H522 lung"}, "[5]": {"tested_on": "HCC-2998 colon"}, "[6]": {"tested_on": "U251 CNS"}, "[7]": {"tested_on": "786-0 renal"}, "[8]": {"tested_on": "HOP-62 NSCLC"}, "[9]": {"tested_on": "NCI-H460 lung"}, "[10]": {"tested_on": "RPMI-8226 leukemia"}, "[11]": {"tested_on": "RXF 393 renal"}, "[12]": {"tested_on": "PC-3 prostate"}, "[13]": {"tested_on": "HL-60(TB) leukemia"}, "[14]": {"tested_on": "SK-MEL-5 melanoma"}, "[15]": {"tested_on": "COLO 205 colon"}, "[16]": {"tested_on": "HS 578T breast"}, "[17]": {"tested_on": "HOP-92 NSCLC"}, "[18]": {"tested_on": "MCF7 breast"}, "[19]": {"tested_on": "SK-OV-3 ovarian"}, "[20]": {"tested_on": "SN12C renal"}, "[21]": {"tested_on": "KM12 colon"}, "[22]": {"tested_on": "TK-10 renal"}, "[23]": {"tested_on": "DU-145 prostate"}, "[24]": {"tested_on": "OVCAR-4 ovarian"}, "[25]": {"tested_on": "HT29 colon"}, "[26]": {"tested_on": "CAKI-1 renal"}, "[27]": {"tested_on": "OVCAR-3 ovarian"}, "[28]": {"tested_on": "MDA-MB-435"}, "[29]": {"tested_on": "SNB-19 CNS"}, "[30]": {"tested_on": "SF-295 CNS"}, "[31]": {"tested_on": "UACC-257 melanoma"}, "[32]": {"tested_on": "UO-31 renal"}, "[33]": {"tested_on": "MOLT-4 leukemia"}, "[34]": {"tested_on": "SW-620 colon"}, "[35]": {"tested_on": "OVCAR-5 ovarian"}, "[36]": {"tested_on": "A498 renal"}, "[37]": {"tested_on": "K-562 leukemia"}, "[38]": {"tested_on": "MDA-N"}, "[39]": {"tested_on": "OVCAR-8 ovarian"}, "[40]": {"tested_on": "SK-MEL-2 melanoma"}, "[41]": {"tested_on": "EKVX NSCLC"}, "[42]": {"tested_on": "HCT-116 colon"}, "[43]": {"tested_on": "NCI-H226 lung"}, "[44]": {"tested_on": "SK-MEL-28 melanoma"}, "[45]": {"tested_on": "M14 melanoma"}, "[46]": {"tested_on": "MDA-MB-231 breast"}, "[47]": {"tested_on": "ACHN renal"}, "[48]": {"tested_on": "A549 NSCLC"}, "[49]": {"tested_on": "SF-268 CNS"}, "[50]": {"tested_on": "BT-549 breast"}, "[51]": {"tested_on": "NCI/ADR-RES ovarian"}, "[52]": {"tested_on": "LOX IMVI melanoma"}, "[53]": {"tested_on": "UACC-62 melanoma"}, "[54]": {"tested_on": "SNB-75 CNS"}, "[55]": {"tested_on": "NCI-H23 lung"}, "[56]": {"tested_on": "MALME-3M melanoma"}, "[57]": {"tested_on": "SF-539 CNS"}, "[58]": {"tested_on": "SR leukemia"}}, "note": "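Cultured in 96-well plates, cells were exposed to test compound for 48 hours across five concentrations. Definition used: TGI = concentration required for complete inhibition of growth.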", "data": [{"smiles": "O=C(/C=C1\\C[C@H]2C=Nc3ccccc3C(=O)N2C1)NCCCNC(=O)/C=C1\\C[C@H]2C=Nc3ccccc3C(=O)N2C1", "values": [{"measurement": "TGI", "setting": "[1]", "value": 60.1, "unit": "µM"}, {"measurement": "TGI", "setting": "[2]", "value": 31, "unit": "µM"}, {"measurement": "TGI", "setting": "[3]", "value": 36.9, "unit": "µM"}, {"measurement": "TGI", "setting": "[4]", "value": 4.21, "unit": "µM"}, {"measurement": "TGI", "setting": "[5]", "value": 35.1, "unit": "µM"}, {"measurement": "TGI", "setting": "[6]", "value": 26.6, "unit": "µM"}, {"measurement": "TGI", "setting": "[7]", "value": 10.9, "unit": "µM"}, {"measurement": "TGI", "setting": "[8]", "value": 35.8, "unit": "µM"}, {"measurement": "TGI", "setting": "[9]", "value": 36.2, "unit": "µM"}, {"measurement": "TGI", "setting": "[10]", "value": 40, "unit": "µM"}, {"measurement": "TGI", "setting": "[11]", "value": 27.9, "unit": "µM"}, {"measurement": "TGI", "setting": "[12]", "value": 31.4, "unit": "µM"}, {"measurement": "TGI", "setting": "[13]", "value": 32, "unit": "µM"}, {"measurement": "TGI", "setting": "[14]", "value": 30.2, "unit": "µM"}, {"measurement": "TGI", "setting": "[15]", "value": 26.2, "unit": "µM"}, {"measurement": "TGI", "setting": "[16]", "value": "> 100", "unit": "µM"}, {"measurement": "TGI", "setting": "[17]", "value": 35.4, "unit": "µM"}, {"measurement": "TGI", "setting": "[18]", "value": 42, "unit": "µM"}, {"measurement": "TGI", "setting": "[19]", "value": 36.4, "unit": "µM"}, {"measurement": "TGI", "setting": "[20]", "value": 37.9, "unit": "µM"}, {"measurement": "TGI", "setting": "[21]", "value": 31.2, "unit": "µM"}, {"measurement": "TGI", "setting": "[22]", "value": 34, "unit": "µM"}, {"measurement": "TGI", "setting": "[23]", "value": 35.9, "unit": "µM"}, {"measurement": "TGI", "setting": "[24]", "value": 35.6, "unit": "µM"}, {"measurement": "TGI", "setting": "[25]", "value": 32.2, "unit": "µM"}, {"measurement": "TGI", "setting": "[26]", "value": 27.2, "unit": "µM"}, {"measurement": "TGI", "setting": "[27]", "value": 31.3, "unit": "µM"}, {"measurement": "TGI", "setting": "[28]", "value": 34.3, "unit": "µM"}, {"measurement": "TGI", "setting": "[29]", "value": 31.4, "unit": "µM"}, {"measurement": "TGI", "setting": "[30]", "value": 36.9, "unit": "µM"}, {"measurement": "TGI", "setting": "[31]", "value": 30.3, "unit": "µM"}, {"measurement": "TGI", "setting": "[32]", "value": 28.4, "unit": "µM"}, {"measurement": "TGI", "setting": "[33]", "value": 7.37, "unit": "µM"}, {"measurement": "TGI", "setting": "[34]", "value": 28.3, "unit": "µM"}, {"measurement": "TGI", "setting": "[35]", "value": 36.2, "unit": "µM"}, {"measurement": "TGI", "setting": "[36]", "value": 31.5, "unit": "µM"}, {"measurement": "TGI", "setting": "[37]", "value": 29.4, "unit": "µM"}, {"measurement": "TGI", "setting": "[38]", "value": 32.3, "unit": "µM"}, {"measurement": "TGI", "setting": "[39]", "value": 33.2, "unit": "µM"}, {"measurement": "TGI", "setting": "[40]", "value": 33.6, "unit": "µM"}, {"measurement": "TGI", "setting": "[41]", "value": 38, "unit": "µM"}, {"measurement": "TGI", "setting": "[42]", "value": 30.5, "unit": "µM"}, {"measurement": "TGI", "setting": "[43]", "value": 36.3, "unit": "µM"}, {"measurement": "TGI", "setting": "[44]", "value": 35.5, "unit": "µM"}, {"measurement": "TGI", "setting": "[45]", "value": 28, "unit": "µM"}, {"measurement": "TGI", "setting": "[46]", "value": 29.7, "unit": "µM"}, {"measurement": "TGI", "setting": "[47]", "value": 28.1, "unit": "µM"}, {"measurement": "TGI", "setting": "[48]", "value": 46.5, "unit": "µM"}, {"measurement": "TGI", "setting": "[49]", "value": 30.8, "unit": "µM"}, {"measurement": "TGI", "setting": "[50]", "value": 30.3, "unit": "µM"}, {"measurement": "TGI", "setting": "[51]", "value": 48.4, "unit": "µM"}, {"measurement": "TGI", "setting": "[52]", "value": 22.6, "unit": "µM"}, {"measurement": "TGI", "setting": "[53]", "value": 29.3, "unit": "µM"}, {"measurement": "TGI", "setting": "[54]", "value": 31.1, "unit": "µM"}, {"measurement": "TGI", "setting": "[55]", "value": 30.4, "unit": "µM"}, {"measurement": "TGI", "setting": "[56]", "value": 30, "unit": "µM"}, {"measurement": "TGI", "setting": "[57]", "value": 34.9, "unit": "µM"}, {"measurement": "TGI", "setting": "[58]", "value": 4.62, "unit": "µM"}]}]}
